In assay [1] the target is T1, serotonin 4 receptor (Cavia porcellus, UniProt O70528).
T1 construct: from tissue; host or cells: ileum longitudinal muscle strips of Hartley guinea pig
Put plainly: Serotonin 4 receptor stimulating activity: twitch responses of electrically stimulated ileum longitudinal muscle strips. The class given is cell-based, guinea pig (Hartley). Particulars: for EC50: twitch responses, guinea pig ileum longitudinal muscle strips, cumulative additions of agonist, read-out: ED50 of the serotonin 4 receptor stimulating activity. From the text: Experiment 1. Serotonin 4 Receptor Stimulating Activity Compounds Tested
Twitch responses were examined in longitudinal muscle strips of guinea pig by a modification of the method described in The Journal of Pharmacology and Experimental Therapeutics, 252, 1378, 1990.
From Hartley guinea pigs, a section of ileum 25 cm in length and proximal to the ileocecal junction was removed. The longitudinal muscle strips obtained from two segments of ileum about 4 cm each in length were used for this experiment. The longitudinal muscle strips were suspended in Krebs' solution at 32° to 34° C. and bubbled with 95% O2 and 5% CO2 under a load of about 0.8 g. Twitch responses were recorded under electrical stimulation of 0.2 Hz, 1 msec pulse duration, using force displacement transducers. The longitudinal muscle strips, stimulated at supramaximal voltage, were allowed to equilibrate for about an hour. […] The test was carried out by exposing the strips to cumulative additions of agonist at least at 45-minute intervals.

For assay [2], the system named is serotonin 4 receptor. The settings on record: Alimentary Pharmacology and Therapeutics, 6, 273, 1992; cited from earlier work.
Assay [3] relates to gastrointestinal motor functions. The settings on record: Alimentary Pharmacology and Therapeutics, 6, 273, 1992; cited from earlier work.

T1 sequence (O70528 whole entry): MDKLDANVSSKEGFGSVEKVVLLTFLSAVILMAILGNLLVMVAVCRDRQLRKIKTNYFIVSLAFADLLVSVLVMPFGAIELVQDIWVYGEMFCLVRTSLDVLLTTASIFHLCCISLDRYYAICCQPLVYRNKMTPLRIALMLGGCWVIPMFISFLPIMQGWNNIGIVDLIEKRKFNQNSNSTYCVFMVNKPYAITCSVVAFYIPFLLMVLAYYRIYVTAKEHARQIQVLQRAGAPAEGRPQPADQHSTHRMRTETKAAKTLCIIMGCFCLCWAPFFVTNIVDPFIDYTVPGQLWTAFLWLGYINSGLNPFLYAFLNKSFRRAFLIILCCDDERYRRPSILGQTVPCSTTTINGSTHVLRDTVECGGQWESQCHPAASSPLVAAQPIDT

For the molecule `CCCCn1c(=O)c(C(=O)N[C@H]2C[C@H]3CC[C@@H](C2)N3C)c(O)c2ccccc21` [Compound 7], the EC50 in assay [1] is above 3000 nM.

For `CCCCn1c(=O)c(C(=O)N[C@H]2C[C@H]3CC[C@@H](C2)N3C)cc2ccccc21` [Compound 4], the EC50 in assay [1] is above 3000 nM. For the molecule `NCCc1c[nH]c2ccc(O)cc12` [5-hydroxytryptamine (5-HT), 5-hydroxytryptamine], the “enhancement of twitch responses” value in assay [1] (10^-8 M) was “twitch responses were enhanced”.

Consider `COc1cc(N)c(Cl)cc1C(=O)NC1CCN2CCCC1C2` (centres unmarked) [renzapride], for which, in assay [2], the “stimulation of serotonin 4 receptor” value is on record as “stimulants of serotonin 4 receptor”. For the same molecule, the “effect on gastrointestinal motor functions and conditions” value in assay [3] is “accelerate gastrointestinal motor functions and improve gastrointestinal conditions”. On to `CCn1c(=O)c(C(=O)N[C@H]2C[C@H]3CC[C@@H](C2)N3C)cc2ccccc21` [Compound 2], for which the EC50 in assay [1] amounted to 138 nM. For the molecule `COc1cc(N)c(Cl)cc1C(=O)NC1CCN(CCCOc2ccc(F)cc2)CC1OC` (centres unmarked) [Cisapride], the “stimulation of serotonin 4 receptor” value in assay [2] is recorded as “stimulants of serotonin 4 receptor”. Moreover, the “effect on gastrointestinal motor functions and conditions” value in assay [3] is “accelerate gastrointestinal motor functions and improve gastrointestinal conditions”. On to `CC(C)Cn1c(=O)c(C(=O)N[C@H]2C[C@H]3CC[C@@H](C2)N3C)cc2ccccc21` [Compound 5], for which, in assay [1], the EC50 worked out at 974 nM. Turning to `CN1[C@@H]2CC[C@H]1C[C@@H](NC(=O)c1cc3ccccc3[nH]c1=O)C2` [Compound 6], in assay [1], the EC50 is above 3000 nM.

Regarding `CCCn1c(=O)c(C(=O)N[C@H]2C[C@H]3CC[C@@H](C2)N3C)cc2ccccc21` [Compound 3], the EC50 in assay [1] came to 413 nM.

(Values after patent US5571820A, “Heterocyclic compound” (Taisho Pharmaceutical Co., Ltd., priority 1992, dated 1996).)
